In ChEMBL document CHEMBL1152560, “Substituted 2-arylbenzothiazoles as kinase inhibitors: hit-to-lead optimization” (Bioorg Med Chem, 2009):

Tests used:
[1] = target: SRSF protein kinase 3 (Homo sapiens) (UniProt Q9UPE1); experiment: Residual activity of STK23 at 10 uM by microplate scintillation counting
[2] = target: T1, Serine/threonine-protein kinase TAO2 (Homo sapiens) (UniProt Q9UL54); experiment: Residual activity of TAOK2 at 1 uM by microplate scintillation counting
T1 sequence (whole entry): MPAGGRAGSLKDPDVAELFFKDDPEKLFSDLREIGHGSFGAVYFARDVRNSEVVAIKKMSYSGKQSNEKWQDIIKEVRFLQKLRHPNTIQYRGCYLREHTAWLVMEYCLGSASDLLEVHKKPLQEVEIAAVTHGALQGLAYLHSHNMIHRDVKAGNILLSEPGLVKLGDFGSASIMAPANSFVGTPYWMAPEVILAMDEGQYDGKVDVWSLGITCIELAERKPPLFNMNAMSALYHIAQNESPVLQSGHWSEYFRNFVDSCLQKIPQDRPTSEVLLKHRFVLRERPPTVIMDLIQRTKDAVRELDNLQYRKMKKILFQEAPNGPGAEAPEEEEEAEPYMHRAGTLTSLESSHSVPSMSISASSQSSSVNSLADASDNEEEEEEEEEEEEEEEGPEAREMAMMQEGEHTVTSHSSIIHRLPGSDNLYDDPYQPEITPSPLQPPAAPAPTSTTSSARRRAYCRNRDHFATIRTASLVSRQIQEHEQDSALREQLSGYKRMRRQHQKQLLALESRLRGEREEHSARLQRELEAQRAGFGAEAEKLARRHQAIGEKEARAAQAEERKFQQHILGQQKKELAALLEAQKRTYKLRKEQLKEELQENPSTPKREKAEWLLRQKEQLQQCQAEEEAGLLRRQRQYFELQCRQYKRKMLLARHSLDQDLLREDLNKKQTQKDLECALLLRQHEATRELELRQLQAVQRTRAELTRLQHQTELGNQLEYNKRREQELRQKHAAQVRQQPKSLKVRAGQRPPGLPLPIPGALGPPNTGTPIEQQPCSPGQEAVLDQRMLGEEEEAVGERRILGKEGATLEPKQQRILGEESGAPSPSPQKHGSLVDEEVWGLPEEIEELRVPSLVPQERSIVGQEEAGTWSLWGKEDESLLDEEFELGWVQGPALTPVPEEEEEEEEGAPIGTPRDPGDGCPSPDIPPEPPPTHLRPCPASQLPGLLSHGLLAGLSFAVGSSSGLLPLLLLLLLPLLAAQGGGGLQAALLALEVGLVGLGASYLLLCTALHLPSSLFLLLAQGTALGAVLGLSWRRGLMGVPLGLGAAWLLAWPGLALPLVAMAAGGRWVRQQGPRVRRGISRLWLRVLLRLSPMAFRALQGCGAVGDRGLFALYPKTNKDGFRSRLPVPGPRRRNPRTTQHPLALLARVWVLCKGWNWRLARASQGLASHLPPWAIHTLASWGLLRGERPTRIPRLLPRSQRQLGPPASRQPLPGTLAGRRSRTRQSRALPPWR

[3] = target: Serine/threonine-protein kinase MRCK beta (Homo sapiens) (UniProt Q9Y5S2); experiment: Residual activity of CDC42BPB at 10 uM by microplate scintillation counting
Chain of Serine/threonine-protein kinase MRCK beta (Homo sapiens) (Q9Y5S2 whole entry): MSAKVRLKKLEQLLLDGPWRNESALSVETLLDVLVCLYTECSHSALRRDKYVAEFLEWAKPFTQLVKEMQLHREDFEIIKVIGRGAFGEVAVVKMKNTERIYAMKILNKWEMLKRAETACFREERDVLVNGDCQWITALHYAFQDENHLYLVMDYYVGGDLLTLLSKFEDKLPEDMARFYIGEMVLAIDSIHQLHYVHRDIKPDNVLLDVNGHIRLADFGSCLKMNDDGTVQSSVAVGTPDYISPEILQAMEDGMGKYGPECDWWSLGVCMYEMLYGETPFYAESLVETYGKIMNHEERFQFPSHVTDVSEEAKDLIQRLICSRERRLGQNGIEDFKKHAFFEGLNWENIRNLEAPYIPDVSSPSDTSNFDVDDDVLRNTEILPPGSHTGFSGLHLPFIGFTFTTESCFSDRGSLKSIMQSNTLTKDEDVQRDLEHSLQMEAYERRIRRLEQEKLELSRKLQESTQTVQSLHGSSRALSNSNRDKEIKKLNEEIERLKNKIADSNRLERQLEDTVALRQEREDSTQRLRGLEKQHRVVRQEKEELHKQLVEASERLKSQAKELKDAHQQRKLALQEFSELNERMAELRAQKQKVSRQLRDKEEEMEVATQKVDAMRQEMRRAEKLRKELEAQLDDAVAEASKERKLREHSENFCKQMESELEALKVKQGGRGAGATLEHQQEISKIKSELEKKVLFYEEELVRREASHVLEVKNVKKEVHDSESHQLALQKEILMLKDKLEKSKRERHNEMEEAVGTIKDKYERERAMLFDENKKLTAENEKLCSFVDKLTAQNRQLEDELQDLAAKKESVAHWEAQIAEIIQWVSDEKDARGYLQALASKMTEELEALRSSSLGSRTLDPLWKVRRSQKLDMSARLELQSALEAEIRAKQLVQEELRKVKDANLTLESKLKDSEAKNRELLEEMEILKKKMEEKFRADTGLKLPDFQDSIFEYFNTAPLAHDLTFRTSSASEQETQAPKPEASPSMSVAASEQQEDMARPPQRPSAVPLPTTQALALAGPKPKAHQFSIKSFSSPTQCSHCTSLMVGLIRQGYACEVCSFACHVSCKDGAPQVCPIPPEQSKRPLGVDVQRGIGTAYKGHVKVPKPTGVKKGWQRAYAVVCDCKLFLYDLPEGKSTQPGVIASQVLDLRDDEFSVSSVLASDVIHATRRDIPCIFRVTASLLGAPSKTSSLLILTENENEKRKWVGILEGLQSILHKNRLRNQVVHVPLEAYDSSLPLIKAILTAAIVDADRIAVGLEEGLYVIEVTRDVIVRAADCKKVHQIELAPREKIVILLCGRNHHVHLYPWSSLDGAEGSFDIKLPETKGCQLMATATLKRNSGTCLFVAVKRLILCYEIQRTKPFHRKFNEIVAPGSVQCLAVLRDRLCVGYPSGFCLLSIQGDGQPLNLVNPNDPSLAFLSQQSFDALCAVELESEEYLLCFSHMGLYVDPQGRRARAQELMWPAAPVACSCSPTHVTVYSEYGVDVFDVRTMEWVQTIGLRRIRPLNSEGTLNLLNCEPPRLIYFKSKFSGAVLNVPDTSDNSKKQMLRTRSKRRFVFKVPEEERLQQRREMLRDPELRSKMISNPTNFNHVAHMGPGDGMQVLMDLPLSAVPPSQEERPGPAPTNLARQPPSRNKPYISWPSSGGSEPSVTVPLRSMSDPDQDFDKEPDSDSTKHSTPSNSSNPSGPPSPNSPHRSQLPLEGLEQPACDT

[4] = target: Serine/threonine-protein kinase SIK2 (Homo sapiens) (UniProt Q9H0K1); experiment: Residual activity of SNF1LK2 at 0.1 uM by microplate scintillation counting
Chain of Serine/threonine-protein kinase SIK2 (Homo sapiens) (Q9H0K1 whole entry, looked up): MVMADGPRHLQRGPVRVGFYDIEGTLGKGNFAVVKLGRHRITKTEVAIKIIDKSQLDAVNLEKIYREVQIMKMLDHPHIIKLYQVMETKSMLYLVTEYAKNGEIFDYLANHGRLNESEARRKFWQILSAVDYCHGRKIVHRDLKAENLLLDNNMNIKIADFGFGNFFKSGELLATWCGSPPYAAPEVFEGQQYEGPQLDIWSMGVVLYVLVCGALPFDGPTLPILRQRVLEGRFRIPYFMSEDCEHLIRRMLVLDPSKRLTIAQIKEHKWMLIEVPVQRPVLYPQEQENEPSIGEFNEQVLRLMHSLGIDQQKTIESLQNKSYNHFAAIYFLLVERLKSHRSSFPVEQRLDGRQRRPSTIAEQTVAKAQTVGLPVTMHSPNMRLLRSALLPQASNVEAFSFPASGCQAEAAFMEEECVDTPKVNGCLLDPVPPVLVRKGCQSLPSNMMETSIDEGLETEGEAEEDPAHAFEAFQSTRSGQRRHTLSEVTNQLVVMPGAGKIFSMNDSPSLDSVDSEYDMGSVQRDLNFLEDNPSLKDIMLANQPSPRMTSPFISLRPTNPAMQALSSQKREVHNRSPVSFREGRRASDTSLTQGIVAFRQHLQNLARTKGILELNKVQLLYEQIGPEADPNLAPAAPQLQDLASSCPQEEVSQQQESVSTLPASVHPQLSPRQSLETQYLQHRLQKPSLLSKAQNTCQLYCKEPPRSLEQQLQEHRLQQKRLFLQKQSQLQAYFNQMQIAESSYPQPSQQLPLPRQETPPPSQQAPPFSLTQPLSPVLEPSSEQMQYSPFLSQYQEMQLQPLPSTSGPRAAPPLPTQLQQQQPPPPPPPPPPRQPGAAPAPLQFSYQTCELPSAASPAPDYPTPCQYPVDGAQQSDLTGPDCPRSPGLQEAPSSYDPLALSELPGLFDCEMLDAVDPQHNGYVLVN

[5] = target: Mitogen-activated protein kinase 8 (Homo sapiens) (UniProt P45983); experiment: Residual activity of JNK1 at 0.1 uM by microplate scintillation counting
Chain of Mitogen-activated protein kinase 8 (Homo sapiens) (P45983 whole entry): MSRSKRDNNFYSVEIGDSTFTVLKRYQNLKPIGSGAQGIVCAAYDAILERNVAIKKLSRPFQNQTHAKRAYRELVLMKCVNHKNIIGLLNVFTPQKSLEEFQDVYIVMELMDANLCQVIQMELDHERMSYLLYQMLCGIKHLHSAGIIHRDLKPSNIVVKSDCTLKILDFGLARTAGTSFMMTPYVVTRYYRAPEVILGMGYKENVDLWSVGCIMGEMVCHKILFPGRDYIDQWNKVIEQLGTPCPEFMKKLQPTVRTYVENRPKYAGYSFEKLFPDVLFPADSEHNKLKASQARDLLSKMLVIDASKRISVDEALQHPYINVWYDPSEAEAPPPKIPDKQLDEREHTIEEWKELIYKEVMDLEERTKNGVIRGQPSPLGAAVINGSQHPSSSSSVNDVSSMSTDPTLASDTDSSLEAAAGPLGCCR

[6] = target: T2, Serine/threonine-protein kinase D1 (Homo sapiens) (UniProt Q15139); experiment: Residual activity of PKCmu at 1 uM by microplate scintillation counting
T2 sequence (whole entry): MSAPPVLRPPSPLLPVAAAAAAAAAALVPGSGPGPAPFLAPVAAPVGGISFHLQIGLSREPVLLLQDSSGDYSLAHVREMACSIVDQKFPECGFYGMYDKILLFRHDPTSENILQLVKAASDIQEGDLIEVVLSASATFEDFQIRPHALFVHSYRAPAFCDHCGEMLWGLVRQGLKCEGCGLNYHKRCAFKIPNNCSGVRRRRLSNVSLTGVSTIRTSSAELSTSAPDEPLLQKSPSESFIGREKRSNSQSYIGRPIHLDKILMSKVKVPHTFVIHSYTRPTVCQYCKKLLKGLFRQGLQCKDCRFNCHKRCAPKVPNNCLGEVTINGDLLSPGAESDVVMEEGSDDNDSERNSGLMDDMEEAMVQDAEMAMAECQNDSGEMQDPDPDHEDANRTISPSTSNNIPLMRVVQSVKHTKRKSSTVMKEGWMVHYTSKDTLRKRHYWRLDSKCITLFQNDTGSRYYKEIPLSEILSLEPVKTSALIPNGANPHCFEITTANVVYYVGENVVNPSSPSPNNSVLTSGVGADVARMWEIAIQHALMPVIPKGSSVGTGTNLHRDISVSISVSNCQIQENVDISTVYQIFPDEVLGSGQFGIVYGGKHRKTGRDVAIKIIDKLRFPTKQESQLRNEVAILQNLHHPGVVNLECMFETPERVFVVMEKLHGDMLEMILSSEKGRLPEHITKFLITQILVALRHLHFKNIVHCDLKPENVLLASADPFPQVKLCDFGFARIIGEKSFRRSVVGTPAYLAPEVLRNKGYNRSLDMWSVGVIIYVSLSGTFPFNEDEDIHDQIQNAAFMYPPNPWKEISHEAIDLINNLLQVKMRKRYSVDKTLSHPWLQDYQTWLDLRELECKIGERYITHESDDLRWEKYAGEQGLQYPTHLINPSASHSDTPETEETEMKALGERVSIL

[7] = target: SRSF protein kinase 2 (Homo sapiens) (UniProt P78362); experiment: Residual activity of SRPK2 at 0.1 uM by microplate scintillation counting
Chain of SRSF protein kinase 2 (Homo sapiens) (P78362 whole entry, looked up): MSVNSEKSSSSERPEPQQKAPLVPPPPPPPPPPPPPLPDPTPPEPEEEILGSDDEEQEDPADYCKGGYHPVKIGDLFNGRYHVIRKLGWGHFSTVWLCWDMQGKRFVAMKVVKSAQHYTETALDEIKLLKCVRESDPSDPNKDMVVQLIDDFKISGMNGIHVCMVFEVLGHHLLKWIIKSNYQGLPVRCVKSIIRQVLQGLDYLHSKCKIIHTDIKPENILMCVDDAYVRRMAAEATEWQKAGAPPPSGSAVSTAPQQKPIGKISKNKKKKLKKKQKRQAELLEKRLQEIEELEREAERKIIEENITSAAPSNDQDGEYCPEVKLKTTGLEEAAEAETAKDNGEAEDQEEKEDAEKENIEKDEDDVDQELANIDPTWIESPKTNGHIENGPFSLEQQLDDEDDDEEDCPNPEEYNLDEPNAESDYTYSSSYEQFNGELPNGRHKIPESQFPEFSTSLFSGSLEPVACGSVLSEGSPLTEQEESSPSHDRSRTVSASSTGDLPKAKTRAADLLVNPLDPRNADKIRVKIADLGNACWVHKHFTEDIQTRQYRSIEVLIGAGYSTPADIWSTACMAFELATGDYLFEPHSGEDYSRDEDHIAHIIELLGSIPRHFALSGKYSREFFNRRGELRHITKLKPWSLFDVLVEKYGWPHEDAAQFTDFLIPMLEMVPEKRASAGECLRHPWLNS

[8] = target: SRSF protein kinase 1 (Homo sapiens) (UniProt Q96SB4); experiment: Residual activity of SRPK1 at 1 uM by microplate scintillation counting
Chain of SRSF protein kinase 1 (Homo sapiens) (Q96SB4 whole entry): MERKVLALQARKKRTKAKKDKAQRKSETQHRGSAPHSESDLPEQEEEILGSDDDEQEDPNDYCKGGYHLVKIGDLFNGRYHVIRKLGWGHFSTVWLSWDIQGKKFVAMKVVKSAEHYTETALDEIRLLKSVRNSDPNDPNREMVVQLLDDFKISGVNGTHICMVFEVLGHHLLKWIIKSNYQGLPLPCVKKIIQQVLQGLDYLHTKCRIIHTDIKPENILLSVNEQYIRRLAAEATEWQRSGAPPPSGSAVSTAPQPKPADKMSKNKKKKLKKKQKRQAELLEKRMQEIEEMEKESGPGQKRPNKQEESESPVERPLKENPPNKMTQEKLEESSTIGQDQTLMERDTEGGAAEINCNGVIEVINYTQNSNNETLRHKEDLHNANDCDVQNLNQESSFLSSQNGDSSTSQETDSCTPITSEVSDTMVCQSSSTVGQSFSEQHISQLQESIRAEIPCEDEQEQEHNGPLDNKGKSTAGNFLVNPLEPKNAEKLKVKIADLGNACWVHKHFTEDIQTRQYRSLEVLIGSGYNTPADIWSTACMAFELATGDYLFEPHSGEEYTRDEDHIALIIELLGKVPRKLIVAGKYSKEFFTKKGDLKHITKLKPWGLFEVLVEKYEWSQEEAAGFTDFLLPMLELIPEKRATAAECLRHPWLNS

Chain of SRSF protein kinase 3 (Homo sapiens) (Q9UPE1 whole entry): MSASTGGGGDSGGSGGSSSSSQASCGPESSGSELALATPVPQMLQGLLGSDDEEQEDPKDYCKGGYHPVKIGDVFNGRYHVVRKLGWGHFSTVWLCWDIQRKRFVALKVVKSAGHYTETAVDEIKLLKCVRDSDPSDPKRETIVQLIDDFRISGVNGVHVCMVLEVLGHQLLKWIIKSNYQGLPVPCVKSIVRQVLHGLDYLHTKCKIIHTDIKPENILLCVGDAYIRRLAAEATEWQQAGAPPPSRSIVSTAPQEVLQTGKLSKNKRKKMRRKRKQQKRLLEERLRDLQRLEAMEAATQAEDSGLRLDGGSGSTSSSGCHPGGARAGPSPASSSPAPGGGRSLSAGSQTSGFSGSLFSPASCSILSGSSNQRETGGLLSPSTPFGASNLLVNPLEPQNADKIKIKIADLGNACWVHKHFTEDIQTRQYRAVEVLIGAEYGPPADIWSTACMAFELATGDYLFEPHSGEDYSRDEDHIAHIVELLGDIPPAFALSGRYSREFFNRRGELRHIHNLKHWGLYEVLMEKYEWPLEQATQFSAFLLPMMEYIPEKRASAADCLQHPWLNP

residual activity [1] | residual activity [2] | residual activity [3] | residual activity [4] | residual activity [5] | residual activity [6] | residual activity [7] | residual activity [8] | Structure (SMILES)
113% | 99% | 82% | 80% | 106% | 100% | 96% | 100% | COc1cc2c(Oc3ccc(-c4nc5ccccc5s4)cc3)ncnc2cc1OCCCN1CCCC1
110% | 97% | 110% | 93% | 98% | 89% | 103% | 103% | COc1cc2c(Oc3ccc(-c4nc5ccccc5s4)cc3)ncnc2cc1OCCCN1CCN(C)CC1
111% | 101% | 102% | 88% | 101% | 89% | 100% | 104% | COc1cc2c(Oc3ccc(-c4nc5ccccc5s4)cc3F)ncnc2cc1OCCCN1CCN(C)CC1
